Where “and” joins values, the source holds several entries; their conditions need not be identical. Identical values can stand only once.
How the values were obtained:
[1] = system: platelet aggregation (11,9-(epoxymethano) PGH2); experiment: In vivo inhibition of platelet aggregation in guinea pigs (11,9-(epoxymethano) PGH2); parameters: species or system male albino guinea pig
Method: The technique employed in this test was basically that of Smith and Freuler, Bibl. anat., 1973, 12, 229-234, which utilises the Technicon Autocounter and provides a completely automated system for counting platelets and cells. Blood is continuously sampled from a suitable artery and to avoid the use of an anticoagulant, a double cannula is used which enables 3.8%, w/v aqueous trisodium citrate to be pumped to the tip of the cannula and the citrated blood then to be removed at 0.1 ml/minute and diluted in the manifold where the red cells are lysed with 1% w/v ammonium oxalate/0.002% w/v saponin solution. The platelets are then counted optically and the count continuously recorded on precalibrated chart paper. In three experiments, each conducted on one male albino guinea pig ([…]) anaesthetised with a mixture of allyl barbituric acid and urethane, the guinea pig was given intravenously a dose of 50 μg/kg of collagen, followed 15 minutes later by 0.35 μg/kg of 11,9-(epoxymethane) PGH2 to give two reliable platelet aggregation responses for each material. […] (In the first experiment, only, the last administration of each compound was omitted).

[2] = target: T1, human platelets (Homo sapiens, UniProt P21731); experiment: Human platelet system, antagonism of aggregation by 11,9-(epoxymethano) PGH2 (affinity constant KB); type: cell-based; details: in words
T1 construct: Platelet-rich plasma is obtained from fresh, citrated human blood; endogenous in cells; host or cells: human platelets in platelet-rich plasma
T1 sequence (P21731 1-343): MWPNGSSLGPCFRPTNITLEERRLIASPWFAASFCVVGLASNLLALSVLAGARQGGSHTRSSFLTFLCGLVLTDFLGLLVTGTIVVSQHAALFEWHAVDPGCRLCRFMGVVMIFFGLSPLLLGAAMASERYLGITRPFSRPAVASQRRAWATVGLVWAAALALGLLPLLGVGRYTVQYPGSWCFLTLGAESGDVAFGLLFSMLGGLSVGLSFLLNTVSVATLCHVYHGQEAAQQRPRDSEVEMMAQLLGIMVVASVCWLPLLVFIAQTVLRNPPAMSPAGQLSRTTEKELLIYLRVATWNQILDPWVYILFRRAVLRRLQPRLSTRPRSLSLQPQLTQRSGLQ
Method: Platelet-rich plasma is obtained from fresh, citrated human blood. Addition of the 11,9-(epoxymethano) PGH2 (1×10^-7 to 5×10^-7 M) causes immediate aggregation recorded as an increase in light transmission (600 nm). In a second experiment the individual compounds are added five minutes previous to the addition of the PGH2 analogue. The dose of the PGH2 analogue added is then increased to a level which gives a similar response to that obtained in the absence of antagonist. The affinity constant, KB, for the compound is calculated according to the Gaddum - Schild Equation (based on Law of Mass Action).
(§1) [B]=molar concentration of compound

[3] = system: bronchoconstriction (collagen); experiment: Modified Konzett-Rossler test, inhibition of bronchoconstriction by collagen; type: in vivo, guinea pig; details: 5 min after compound; 1 mg/kg i.v.; insufflation pressure
Method: (§2) In three experiments, each conducted on one male albino guinea pig ([…]) anaesthetised with a mixture of allyl barbituric acid and urethane, the guinea pig was given intravenously a dose of 50 μg/kg of collagen, followed 15 minutes later by 0.35 μg/kg of 11,9-(epoxymethane) PGH2 to give two reliable platelet aggregation responses for each material. After a further period of 10 minutes, the guinea pig was treated intravenously with a dose of 1 mg/kg of 5-endo-(6'-carboxyhex-2'Z-enyl)-6-exo{1'-[N-(phenylthiocarbamoyl)hydrazono]-ethyl}-bicyclo [2,2,1] heptane prepared as described in Example 2. Commencing 5 minutes after the administration of the bicyclo [2,2,1] heptane, the alternate treatments at 15 minute intervals with collagen and 11,9-(epoxymethano) PGH2 were repeated, the second treatment with the latter compound being followed after 15 minutes by a final treatment with collagen. (In the first experiment, only, the last administration of each compound was omitted).
(§3) The same three experiments on guinea pigs described under 1(b) are used to give a measure in a modified Konzett-Rossler test of the inhibition produced by 5-endo-(6'-carboxyhex-2'Z-enyl)-6-exo{1'[N-(phenylthiocarbamoyl)-hydrazono]ethyl}-bicyclo [2,2,1] heptane, prepared as described in Example 2, of the bronchoconstriction resulting from administration of the collagen and the PGH2 derivative. […]

[4] = system: platelet; experiment: Block of the aggregatory action of arachidonic acid on platelets; type: cell-based; details: in words
[5] = system: bronchoconstriction (PGH2 derivative); experiment: Modified Konzett-Rossler test, inhibition of bronchoconstriction by 11,9-(epoxymethano) PGH2; type: in vivo, guinea pig; details: 5 min after compound; 1 mg/kg i.v.; insufflation pressure
Method: as §2, §3

[6] = system: rabbit aorta; experiment: Rabbit aorta strip, antagonism of contraction by 11,9-(epoxymethano) PGH2 (affinity constant KB); type: cell-based; details: in words
Method: Spiral strips of thoracic aorta are suspended in Kreb's-Henseleit solution and aerated with 95% O2 /5% CO2 at 37° C. Tension changes are recorded with a Glass FTO3 force transducer. Initially, cumulative dose response curves to 11,9-(epoxymethano) PGH2 (2×10^-9, 1×10^-8, 5×10^-8 and 2.5×10^-7 M) are obtained. In a second experiment the individual compounds are added 30 minutes previous to the addition of the series of agonist doses. In the case of each compound, the affinity constant, KB, for the compound is calculated according to the Gaddum - Schild Equation (based on Law of Mass Action).
as §1

[7] = system: platelet aggregation (collagen); experiment: In vivo inhibition of platelet aggregation in guinea pigs (collagen); parameters: species or system male albino guinea pig
Method: (§4) The technique employed in this test was basically that of Smith and Freuler, Bibl. anat., 1973, 12, 229-234, which utilises the Technicon Autocounter and provides a completely automated system for counting platelets and cells. Blood is continuously sampled from a suitable artery and to avoid the use of an anticoagulant, a double cannula is used which enables 3.8%, w/v aqueous trisodium citrate to be pumped to the tip of the cannula and the citrated blood then to be removed at 0.1 ml/minute and diluted in the manifold where the red cells are lysed with 1% w/v ammonium oxalate/0.002% w/v saponin solution. The platelets are then counted optically and the count continuously recorded on precalibrated chart paper.
as §2

[8] = system: rabbit aorta; experiment: Block of the contractile action of noradrenaline in the rabbit aorta strip test; type: cell-based; details: in words
[9] = system: platelet aggregation (collagen); experiment: In vivo inhibition of platelet aggregation in rats (collagen); parameters: species or system male Sprague-Dawley rats; details: for Percentage Fall in platelet count on administering collagen, After, mean: mean of 6 rats, compound 1 mg/kg i.v.
Method: as §4
Each of a group of six male Sprague-Dawley rats anaesthetised with pentabarbitone was injected intravenously with 40 μg/kg of collagen followed, 15 minutes later, by 80 μg/kg of collagen, which gives a dose-dependent and reproducible fall in platelet count. Ten minutes after the second injection of collagen, the rats were treated intravenously with a dose of 1 mg/kg of 5-endo-(6'-carboxyhex-2'Z-enyl)-6-exo-{1'-[N-(phenylthiocarbamoyl)-hydrazono]ethyl}-bicyclo [2,2,1] heptane prepared as described in Example 2. At 5 and 20 minutes after the administration of this compound a further 40 μg/kg and 80 μg/kg of collagen, respectively, were administered. The levels of platelet aggregation resulting from the administration of the collagen before and after the administration of the bicyclo [2,2,1] heptane were recorded continuously as indicated above.

[10] = PGH2 deriv. 0.35 μg/kg, average of experiments
[11] = collagen 50 μg/kg, average of experiments

In the case of `CC(=NNC(=S)Nc1ccccc1)[C@H]1[C@@H]2CC[C@@H](C2)[C@@H]1C/C=C\CCCC(=O)O` (relative stereo) [Example 2, 5-endo(6'-Carboxyhex-2'Z-enyl)-6-exo-{1'-[N-(phenylthiocarbamoyl)-hydrazono]-ethyl}-bicyclo [2,2,1] heptane], the “Percentage Inhibition of platelet aggregation, 20 min” value ([1]; PGH2 deriv. 0.35 μg/kg, 20 min after 1 mg/kg i.v. compound, single animal) is reported as 75.7 Percentage and 85.2 Percentage and 83.7 Percentage, the “Percentage Inhibition of platelet aggregation, 50 min” value ([1]; PGH2 deriv. 0.35 μg/kg, 50 min after 1 mg/kg i.v. compound, single animal) is reported as 65.5 Percentage and 64.6 Percentage and the “Percentage Inhibition of platelet aggregation, 20 min, Average” value [1, 10] is reported as 81.5 Percentage. For the same compound, the “Percentage Inhibition of platelet aggregation, 50 min, Average” value [1, 10] was 65.1 Percentage, the “platelet aggregation produced by 11,9-(epoxymethano) PGH2, in words” value ([1]; guinea pig, 1 mg/kg i.v.) was “caused an inhibition of the platelet aggregation” and the “antagonist in the platelet test” value [2] was “antagonists in the platelet test”. The “inhibition of the bronchoconstricting effect of collagen” value [3] was “complete inhibition”, the “aggregatory action of arachidonic acid” value [4] was “block the aggregatory action of arachidonic acid” and the “inhibition of the bronchoconstricting effect of the PGH2 derivative” value [5] was “complete inhibition”. For the same compound, the “antagonist in the rabbit aorta strip test” value [6] was “pure antagonists in the rabbit aorta strip test”, the “Percentage Inhibition of platelet aggregation, 5 min” value ([7]; collagen 50 μg/kg, 5 min after 1 mg/kg i.v. compound, single animal) was 73.6 Percentage and 64.5 Percentage and 68.3 Percentage and the “Percentage Inhibition of platelet aggregation, 35 min” value ([7]; collagen 50 μg/kg, 35 min after 1 mg/kg i.v. compound, single animal) was 67.3 Percentage and 64.4 Percentage and 56.1 Percentage. The “Percentage Inhibition of platelet aggregation, 65 min” value ([7]; collagen 50 μg/kg, 65 min after 1 mg/kg i.v. compound, single animal) was 56.1 Percentage and 51.5 Percentage, the “Percentage Inhibition of platelet aggregation, 5 min, Average” value [7, 11] was 68.8 Percentage and the “Percentage Inhibition of platelet aggregation, 35 min, Average” value [7, 11] was 62.6 Percentage. For the same compound, the “Percentage Inhibition of platelet aggregation, 65 min, Average” value [7, 11] was 53.8 Percentage, the “platelet aggregation produced by collagen, in words” value ([7]; guinea pig, 1 mg/kg i.v.) was “caused an inhibition of the platelet aggregation” and the “contractile action of noradrenaline (α-adrenoceptors)” value [8] was “do not block the contractile action of noradrenaline”. The “average response to collagen” value ([9]; 40 μg/kg collagen, before vs after compound 1 mg/kg i.v.) was “significantly reduced”, the “P, one tailed paired t-test, reduction of average response” value ([9]; 40 μg/kg collagen, t=2.25 (5Df)) was less than 0.05 and the “Percentage Fall in platelet count on administering collagen, After, individual rat” value ([9]; collagen 40 μg/kg i.v., 5 min after 1 mg/kg i.v. compound) was 14.0 Percentage and 13.3 Percentage and 14.6 Percentage and 25.0 Percentage and 18.5 Percentage and 19.4 Percentage. For the same compound, the “Percentage Fall in platelet count on administering collagen, After, mean” value ([9]; collagen 40 μg/kg) was 17.47 Percentage, the “Percentage Fall in platelet count on administering collagen, After, individual rat” value ([9]; collagen 80 μg/kg i.v., 20 min after 1 mg/kg i.v. compound) was 18.3 Percentage and 27.1 Percentage and 28.4 Percentage and 34.4 Percentage and 34.5 Percentage and 28.2 Percentage and the “Percentage Fall in platelet count on administering collagen, After, mean” value ([9]; collagen 80 μg/kg) was 28.5 Percentage.

From US5028733A, “Prostaglandins” (National Research Development Corporation, priority 1980, dated 1991)
